Data from patent US8853274B1, “Compositions and methods for targeting glioblastomas cells” (Vanderbilt University, priority 2011, dated 2014).

Key:
Type in all cases: cell-based, human
T4302 CD133+ cells [1] = experiment: Caspase 3/7 activation (apoptosis); conditions: for apoptotic cell death: following 3-Gy X-ray radiation, 2 μM DAPT or 0.5 μM L685,458
Method: (A) T4302 CD133+ GBM stem cells were enriched from freshly collected subcutaneous xenograft tumors, cultured in stem cell media. Cells were left unirradiated or irradiated at 3 Gy. The relative mRNA levels of Hes2 were determined by quantitative real-time PCR at the time points as indicated. (B) T4302 CD133+ cells were pre-treated with vehicle (DMSO), 2 μM DAPT or 0.5 μM L685,458 for 4 hours and irradiated as indicated. Cells were then plated to form neurospheres. Fourteen days after plating, neurospheres containing more than 50 cells were scored. To determine the surviving fractions, the number of neurosphere at each radiation dose was normalized to that of the corresponding sham-irradiated group. (C) T4302 CD133+ cells were treated with GSIs±radiation as indicated. Relative caspase 3/7 activities were determined by normalizing caspase activities to the corresponding cell numbers. (D), (E) T4302 CD133+ cells were infected with lentivirus directing expression of non-targeting shRNA or shRNAs specific to Notch1 or Notch2 (KD-Notch1 or KD-Notch2), and selected with puromycin. Relative caspase 3/7 activities and clonogenic survival were determined as described above. (F) T4302 CD133+ cells were infected with control lentivirus or lentivirus directing expression of NICD2. Clonogenic survival was determined as described above. *: p<0.05 by Student's t-test; #: p<0.01 by one-way ANOVA.
(A, B) T4302 CD133+ cells were treated with 100 nM RO4929097 (GSI) and/or 100 nM tipifarnib (FTI) for 4 hours prior to 3 Gy radiation. (A) Cell growth on day 5 and (B) caspase 3/7 activation on day 3 were determined as described in FIG. 4. #: p<0.001 by one-way ANOVA, combo vs. single agents. (C) The effects of GSIs and FTI against growth of T4302 CD133− cells were determined as described in panel A. (D, E) T4302 CD133+ cells were treated with GSI, FTI, or a 1:1 mixture at different concentrations (ranging from 3000 nM to ˜0.5 nM, 1:3 dilution)±3 Gy radiation. Cell viability was determined at 5 days after treatment in comparison to vehicle-treated groups. […] (F) T4302 CD 133+ cells were treated by GSI±FTI with a 2-fold dilution. Neurospheres were countered on day 10, and normalized to the vehicle-treated group.

GBM 44 = experiment: Growth inhibition at day 5, spheroid GBM culture
Method: (A) Known genetic features of selected GBM samples. WT: wild type; Amp: amplification; vIII: EGFRvIII; ND: not determined. (B) Spheroid GBM cultures were derived from freshly collected subcutaneous tumors and cultured for 2 weeks in stem cell media to enrich stem cell-like cancer cells. SF7225 was maintained as a primary spheroid culture. Growth inhibition at day 5 after treatment was determined as described in FIG. 5. *: p<0.01 by Student's t-test and growth inhibition ≧30% vs. the corresponding vehicle-treated groups. #: p<0.01 and >30% growth inhibition vs. the radiation only groups.
Work is now extended to a set of subcutaneous GBM xenografts (GBM) established by Dr. Jann Sarkaria and colleagues at Mayo Clinic. These samples are known to have mutational status of EGFR, p53 and PTEN and different radiosensitivity (FIG. 8A) (69-71). Because the cancer stem cell identity of CD133+ of the Mayo Clinic samples has not been validated by functional assays, the present inventor used the neurosphere culture that is widely utilized as a surrogate of GSCs for its ability to enrich GSC-like population (72, 73). Tumor response to GSI, FTI and/or radiation was determined as growth inhibition on day 5 after treatment, with a greater than 30% cell number reduction was defined as positive response mimicking the RECIST criteria (FIG. 8B). […] Therefore, the present inventor will continuously expand the GBM panel and determine the genomic features of all samples with focus on prevalent GBM-associated aberrations. On the basis of this molecularly characterized tumor panel, the present inventor will start to explore the potential biomarkers that may predict tumor response to the combination therapy of radiation, GSI and FTI by experiments described in herein.

CD133+ GBM stem cells = experiment: Growth inhibition within 5 days, panel of glioblastoma xenograft samples; conditions: 5-day period; in combination with 3 Gy radiation
Method: CD133+ cells were derived from multiple glioblastoma xenograft samples as indicated. The growth inhibitory effects by GSI and/or FTIs were determined as described in FIG. 5.
Therefore, effective killing of GBM stem cells may delay or even prevent tumor recurrence. […] In combination with radiation, GSIs or FTIs alone reduced cell numbers by ˜75%.

T4302 CD133+ cells [2] = experiment: Neurosphere formation (clonogenic survival); conditions: following 3-Gy X-ray radiation; 2 μM DAPT or 0.5 μM L685,458, 4 h pre-treatment
Method: (A) T4302 CD133+ GBM stem cells were enriched from freshly collected subcutaneous xenograft tumors, cultured in stem cell media. Cells were left unirradiated or irradiated at 3 Gy. The relative mRNA levels of Hes2 were determined by quantitative real-time PCR at the time points as indicated. (B) T4302 CD133+ cells were pre-treated with vehicle (DMSO), 2 μM DAPT or 0.5 μM L685,458 for 4 hours and irradiated as indicated. Cells were then plated to form neurospheres. Fourteen days after plating, neurospheres containing more than 50 cells were scored. […] Relative caspase 3/7 activities were determined by normalizing caspase activities to the corresponding cell numbers. […] Relative caspase 3/7 activities and clonogenic survival were determined as described above. […] Clonogenic survival was determined as described above. *: p<0.05 by Student's t-test; #: p<0.01 by one-way ANOVA.
(A, B) T4302 CD133+ cells were treated with 100 nM RO4929097 (GSI) and/or 100 nM tipifarnib (FTI) for 4 hours prior to 3 Gy radiation. (A) Cell growth on day 5 and (B) caspase 3/7 activation on day 3 were determined as described in FIG. 4. #: p<0.001 by one-way ANOVA, combo vs. single agents. […] Cell viability was determined at 5 days after treatment in comparison to vehicle-treated groups. […]

SMILES: Cn1cncc1[C@@](N)(c1ccc(Cl)cc1)c1ccc2c(c1)c(-c1cccc(Cl)c1)cc(=O)n2C [tipifarnib]
- increase of caspase 3/7 activity compared with the sham-treated group (T4302 CD133+ cells [1]; following 3-Gy radiation, 100 nM, day 3): approximately 2 fold
- growth inhibition on day 5 (GBM 44; 0 Gy): 23.4±6.4%
- growth inhibition on day 5 (GBM 44; 3 Gy): 42±7.2%
- growth inhibition / reduction of cell numbers (CD133+ GBM stem cells): ~75%

SMILES: CC(C)C[C@H](NC(=O)[C@H](Cc1ccccc1)C[C@@H](O)[C@H](Cc1ccccc1)NC(=O)OC(C)(C)C)C(=O)N[C@@H](Cc1ccccc1)C(N)=O [L-685,458]
- apoptotic cell death (T4302 CD133+ cells [1]): increased apoptotic cell death
- clonogenic survival (T4302 CD133+ cells [2]): reduced clonogenic survival

SMILES: C[C@H](NC(=O)Cc1cc(F)cc(F)c1)C(=O)N[C@H](C(=O)OC(C)(C)C)c1ccccc1 [DAPT]
- apoptotic cell death (T4302 CD133+ cells [1]): increased apoptotic cell death
- clonogenic survival (T4302 CD133+ cells [2]): reduced clonogenic survival
